Entries after “also recorded” stand apart in the source; their conditions may differ. One block for each molecule: values may come before it.
Legend:
healthy male subjects = test: First-in-human single-dose study in healthy male subjects (NCT03869320); type: in vivo
Description: (§1) […] […] In the 30 mg dose level group the effect of food is additionally investigated by administering the same treatment to the same subjects after a standardized high-fat breakfast.

[1] = as above; type: in vivo; conditions: male, human, plasma
Description: as §1

[2] = tested on: cuprizone-induced demyelination mice; test: Cuprizone-induced demyelination mouse model, Experiment 1; type: in vivo, mouse (C57BL/6); conditions: 6 weeks
Description: Male C57BL/6 mice are exposed to cuprizone (CPZ; 150 mg/kg, b.i.d.), a […] chelating agent which leads to the death of mature oligodendrocytes, by oral gavage twice daily for six weeks. […] The experiment is terminated after 6 weeks of cuprizone exposure. […] CXCL12 plasma concentrations are measured as previously described in example A. Brain samples are isolated and fixed for histopathological and immunohistochemistry examinations to assess the degree of demyelination (Luxol Fast Blue for myelin staining) and the loss of mature oligodendrocytes (GSTiT staining).

MOG-induced EAE mice [3] = test: Monotherapy efficacy experiment in MOG-induced EAE model (preventive setting); type: in vivo, mouse (C57BL/6)
Description: (§2) Female C57BL/6 mice are immunized with an emulsion of MOG in complete Freund's adjuvant (CFA) and pertussis toxin (day 0). A total of 150 μg of MOG is injected per mice at two sites subcutaneously in each flank of the abdomen. Mice are injected intraperitoneally with pertussis toxin a second time, 2 days after the first injection (day 2). Within 9 to 14 days, mice develop signs of paralysis which will be graded on a scale from 0 to 5 assessing the tail and limbs defined as: 0=no clinical sign of EAE, 0.5=end tail paralyzed or one limb weakness, 1=tail paralyzed or two limbs weakness, 1.5=tail paralyzed and one hind limb weakness, 2=tail paralyzed and bilateral partial hind limb paralysis, 2.5=tail paralyzed and unilateral complete hind limb paralysis, 2.75=score of 2.5+unilateral partial hind limb paralysis, 3=complete bilateral hind limb paralysis, 3.25=3+unilateral partial forelimb paralysis, 3.5=3+unilateral complete forelimb paralysis, 4=complete paralysis (moribund) and, 5=death or euthanized.
The disease progression follows a chronic progressive course with no remission.
It consists of four treatment groups: • 1. Vehicle (water) b.i.d., from day 0 • 2.
Clinical scores are assessed on a daily basis and disease development is compared between vehicle-treated mice and mice receiving COMPOUND. The cumulative disease score is calculated for each mouse by summing all the daily clinical scores over the 29-days study period. The experiment is terminated at day 29, 1 to 4 hours post dosing. […] CXCL12 plasma concentrations are determined using a commercial quantikine ELISA mouse CXCL12/SDF1c kit from R&D systems, according to manufacturer's instructions.
Groups of 10 mice are dosed orally starting at the day of disease induction (day 0). It consists of two treatment groups: • 1. Vehicle (0.5% Methylcellulose/0.5% Tween® 80) b.i.d., from day 0 • 2. Fingolimod (0.03 mg/kg) q.d.+Vehicle q.d., from day 0
Clinical scores are assessed on a daily basis and disease development is compared between vehicle-treated mice and mice receiving fingolimod. The cumulative disease score is calculated for each mouse by summing all the daily clinical scores over the 27-days study period. The experiment is terminated at day 27.

MOG-induced EAE mice [4] = test: Combination efficacy experiment in the MOG-induced EAE model (therapeutic setting); type: in vivo, mouse (C57BL/6); conditions: for efficacy on the clinical scores of the disease: from day 7 (just before onset), COMPOUND 100 mg/kg b.i.d., fingolimod 0.03 mg/kg q.d., combination effect from day 14 onwards
Description: The combination efficacy experiment is performed in the same mouse EAE model as described for the pilot experiments.
Groups of 10 mice are dosed orally starting just before the onset of disease (day 7). It consists of four treatment groups: • 1. Vehicle (0.5% Methylcellulose/0.5% Tween® 80) b.i.d., from day 7 • 2. Fingolimod (0.03 mg/kg) q.d.+Vehicle q.d., from day 7 • 3.
Clinical scores are assessed on a daily basis and disease development is compared between vehicle-treated mice and mice receiving the different treatments. The experiment is terminated at day 16 or day 17. Hematology parameters, including lymphocyte count, are measured at the termination of the experiment. […] CXCL12 plasma concentrations are determined using a commercial quantikine ELISA mouse CXCL12/SDF1c kit from R&D systems, according to manufacturer's instructions.

[5] = tested on: CXCL12 in plasma (biomarker of CXCR7 receptor antagonist); test: Dose finding of COMPOUND in naive mice, CXCL12 elevation in plasma; type: in vivo, mouse (C57BL/6); conditions: COMPOUND 100 mg/kg b.i.d. oral, 3 days, naive C57BL/6 mice, exposure at trough (14 hours after last dosing), only the highest dose tested
Description: CXCL12 or CXCL11 plasma concentrations may be determined using methods well known in the art, e.g. an Ella® immunoassay (Bio-Techne®), or a commercial quantikine ELISA mouse CXCL12/SDF1α kit from R&D systems.

[6] = tested on: cuprizone-induced demyelination mice; test: Cuprizone-induced demyelination model with cuprizone withdrawal, Experiment 2; type: in vivo, mouse (C57BL/6); conditions: week 5 to week 7; COMPOUND 100 mg/kg b.i.d., fingolimod 0.3 mg/kg q.d.
Description: Male C57BL/6 mice are exposed to a 0.2% cuprizone diet for six weeks and then switched to control food for one more week. Groups of 8-9 mice are dosed orally starting after five weeks of cuprizone exposure. It consists of three treatment groups: • 1. Vehicle (0.5% Methylcellulose/0.5% Tween® 80) b.i.d., from week 5 to week 7 • 2. Fingolimod (0.3 mg/kg) q.d.+Vehicle q.d., from week 5 to week 7 • 3. […] Hematology parameters, including lymphocyte count, are measured at the termination of the experiment, one hour after the last dosing. […] Brain samples are isolated and fixed for histopathological and immunohistochemistry examinations to assess the degree of demyelination (Luxol Fast Blue for myelin staining).

PLP-induced EAE mice = test: Monotherapy efficacy experiment in the PLP-induced EAE model (therapeutic setting); type: in vivo, mouse (SJL/J)
Description: as §2, with “SJL/J” for “C57BL/6”, “PLP” for “MOG”, “CFA” for “complete Freund's adjuvant (CFA)”, “100” for “150”, “16” for “14”, “euthanized. The disease progression follows a relapsing-remitting course with a first peak of disease occurring three to five days after the onset, followed by a remission phase and a second peak of the disease between 20-30 days after EAE induction.” for “euthanized.”
The study consists of four treatment groups: • 1. Vehicle (water) b.i.d., from disease onset for each mouse • 2.
Clinical scores are assessed on a daily basis, in a blinded manner and disease development is compared between vehicle-treated mice and mice receiving COMPOUND. The cumulative disease score is calculated for each mouse by summing all the daily clinical scores over the 30-days after treatment initiation. […] CXCL12 plasma concentrations are determined as previously described in example A.

[7] = tested on: lymphocyte count in peripheral blood; test: Dose finding of siponimod in healthy SJL/J mice, alone and with COMPOUND; type: in vivo, mouse (SJL/J); conditions: siponimod 0.3 mg/kg q.d. oral, healthy female SJL/J mice
Description: In a pilot experiment, healthy female SJL/J mice are dosed orally for 2 to 3 days with siponimod at different doses in the range from 0.03 to 1 mg/kg, once daily. The goal is to assess the dose-effect relationship of siponimod on lymphocyte count in peripheral blood (which is an established biomarker to monitor pharmacological activity of S1P1 receptor modulators) in this strain of mouse over 24 h.

patients = conditions: cited from earlier work
[8] = tested on: lymphocyte count in peripheral blood; test: Dose finding of fingolimod in healthy mice, lymphocyte count in peripheral blood; type: in vivo, mouse (C57BL/6)
Description: In parallel to the measurement of target engagement of COMPOUND, a second pilot experiment is performed. Healthy female C57BL/6 receive fingolimod at different doses in the range from 0.01 to 0.3 mg/kg, once daily (q.d.). The goal is to assess the dose-effect relationship of fingolimod on lymphocyte count in peripheral blood (which is an established biomarker to monitor pharmacological activity of S1P1 receptor modulators) in this strain of mouse over 24 h.

[9] = COMPOUND 10, 100, 150 mg/kg b.i.d. from disease onset

food effect on the pharmacokinetics (healthy male subjects; 30 mg, standardized high-fat breakfast vs fasted): no relevant food effect
exposure increase across the dose range (healthy male subjects; 1 to 200 mg single oral dose): essentially dose-proportional
bioavailability ([1]; iv, i.v. microtracer, 200 mg dose level group, read-out: absolute bioavailability): ~50%
Tmax ([1]; single oral doses >=10 mg, fasted): 1.3 to 3 h
Structure (SMILES): O=C(N[C@H]1CCN(CC2CC2)C[C@@H]1C(=O)NC1(c2ncccn2)CC1)c1cc(-c2ccc(F)cc2F)on1 [COMPOUND, (3S,4S)-1-Cyclopropylmethyl-4-{[5-(2,4-difluoro-phenyl)-isoxazole-3-carbonyl]-amino}-piperidine-3-carboxylic acid (1-pyrimidin-2-yl-cyclopropyl)-amide]
dose dependence of plasma CXCL12 concentrations (healthy male subjects; 1 to 200 mg single oral dose): dose-dependently increase
CXCL11 concentrations (healthy male subjects; healthy volunteers, single dose): essentially unchanged
route of excretion (healthy male subjects; oral microtracer, 100 mg dose level group): mainly excreted in feces and to a minor extent in urine
plasma CXCL12 levels compared to baseline (healthy male subjects; single oral dose, across tested dose range): approximately 2 fold
safety and tolerability (healthy male subjects; single oral doses from 1 to 200 mg, healthy male subjects): safe and well tolerated
mature oligodendrocyte counts in the corpus callosum ([2]; COMPOUND 100 mg/kg b.i.d. preventive from day 0 (prev-CPZ)): increased significantly
myelin stain (Luxol Fast Blue) in the corpus callosum ([2]; COMPOUND 100 mg/kg b.i.d. preventive, co-administered with cuprizone from day 0 (prev-CPZ)): increased significantly
mature oligodendrocyte counts in the corpus callosum ([2]; COMPOUND 100 mg/kg b.i.d. therapeutic from week 3 (ther-CPZ)): increased significantly
myelin stain (Luxol Fast Blue) in the corpus callosum ([2]; COMPOUND 100 mg/kg b.i.d. therapeutic, starting 3 weeks after cuprizone start (ther-CPZ)): increased significantly
overall burden of EAE disease (MOG-induced EAE mice [3]; COMPOUND 100 mg/kg b.i.d., preventive setting): significantly reduces
plasma CXCL12 levels (MOG-induced EAE mice [3]; COMPOUND 10, 30, 100 mg/kg b.i.d. from day 0, day 29, 1 to 4 hours post dosing): dose-dependent increase
overall extent of EAE disease, mean cumulative disease scores over the 29-days study (MOG-induced EAE mice [3]; COMPOUND 10, 30, 100 mg/kg b.i.d. oral from day 0 (preventive)): dose-dependent efficacy
CXCL12 plasma levels (MOG-induced EAE mice [4]; COMPOUND 100 mg/kg b.i.d. from day 7, at termination): increase
efficacy on the clinical scores of the disease (MOG-induced EAE mice [4]): moderate
plasma CXCL12 increase over 24 h [5]: sustain plasma CXCL12 increase over 24 h; also recorded: sustain CXCL12 plasma levels over 24 hours
spontaneous remyelination in the corpus callosum one week after CPZ withdrawal [6]: accelerated significantly
CXCL11 plasma levels at trough (PLP-induced EAE mice; COMPOUND 100 mg/kg b.i.d.): increases
CXCL12 plasma levels at trough (PLP-induced EAE mice; COMPOUND 100 mg/kg b.i.d.): increases
clinical scores in the PLP-induced EAE model (PLP-induced EAE mice; COMPOUND 100 mg/kg b.i.d.): maximally reduces
plasma CXCL11 levels (PLP-induced EAE mice; [9]): dose-dependent increase
plasma CXCL12 levels (PLP-induced EAE mice; [9]): dose-dependent increase
overall extent of the disease, mean cumulative disease scores over 30 days after treatment initiation (PLP-induced EAE mice; COMPOUND 10, 100, 150 mg/kg b.i.d. oral from disease onset (therapeutic)): dose-dependent efficacy

Structure (SMILES): CCc1cc(/C(C)=N/OCc2ccc(C3CCCCC3)c(C(F)(F)F)c2)ccc1CN1CC(C(=O)O)C1 [siponimod, 1-(4-[1-[(E)-4-Cyclohexyl-3-trifluoromethyl-benzyloxyimino]-ethyl]-2-ethyl-benzyl)-azetidine-3-carboxylic acid]
lymphocyte count reduction over 24 h [7]: full efficacy
persistence of residual pharmacodynamics effects (lowering of peripheral lymphocyte count) after the last dose (patients; siponimod, human): 3-4 weeks
time remaining in the blood after stopping therapy (patients; siponimod, human): up to 10 days
patients whose lymphocyte counts returned to the normal range (patients; siponimod, within 10 days of stopping therapy): 90 % of patients

Structure (SMILES): CCCCCCCCc1ccc(CCC(N)(CO)CO)cc1 [fingolimod, 2-amino-2-[2-(4-octylphenyl)ethyl]-propane-1,3-diol, reference compound]
plasma CXCL12 levels (MOG-induced EAE mice [3]; fingolimod 0.03 mg/kg q.d. from day 0): not associated with an increase
overall extent of EAE disease, cumulative disease scores over the 27-days study (MOG-induced EAE mice [3]; fingolimod 0.03 mg/kg q.d. oral from day 0 (preventive)): exhibits efficacy
lymphocyte count in peripheral blood (MOG-induced EAE mice [4]; fingolimod 0.03 mg/kg q.d. from day 7, at termination): reduction
efficacy on the clinical scores of the disease (MOG-induced EAE mice [4]): minimal
spontaneous remyelination in the corpus callosum one week after CPZ withdrawal [6]: no effect
time for lymphocyte counts to return to the normal range after stopping therapy (patients; fingolimod, human): 1-2 months
time remaining in the blood with pharmacodynamic effects (decreased lymphocyte counts) following the last dose (patients; fingolimod, human): up to 2 months
lymphocyte count reduction over 24 h ([8]; fingolimod 0.03 mg/kg q.d., healthy female C57BL/6): partial efficacy
lymphocyte count reduction over 24 hours ([8]; fingolimod 0.3 mg/kg q.d.): fully efficacious
